Experimental data published in PMC6146907, “Structural Determinants of the Stability of Enzyme‐Responsive Polyion Complex Nanoparticles Targeting Pseudomonas aeruginosa’s Elastase” (Chemnanomat, 2018).
Peptide text beside a SMILES is read from it.

Target: Pseudomonas aeruginosa Elastase (LasB) (Pseudomonas aeruginosa, UniProt P14756)
Details: fluorescamine assay; 125 μL 1 mM peptide + 125 μL buffer with 15 μg LasB; 25 mM Na2B4O7 pH 8.0, 10 mM CaCl2; 37 °C, 4 h; fluorescence ex 355/em 460 nm; normalised to P5 = 100%; n=3
Description: P5’s sequence should be formed following LasB‐mediated hydrolysis of the −GLAE− sequence, present in all the peptides reported.
One‐way ANOVA, followed by Tukey's test (CI=95%,) was used to test for significance. Statistical significance was determined ‘n/s’=not significant, *** p<0.001.
Stock solutions of peptide (1 mM) or succinyl casein (0.5 mg/mL) were prepared in 25 mM Na2B4O7 buffer at pH 8.0 with 10 mM CaCl2 and 10% v/v DMSO. 125 μL of these substrate solutions were added to a 96‐well black‐walled microplate and mixed with 125 μL of the same buffer without DMSO, containing 15 μg of enzyme (LasB or HLE). Solutions of enzymes and substrates alone were prepared as controls. Every sample was prepared in triplicate. The microplate was incubated at 37 °C for 4 hours under orbital shaking. After 4 hours, 50 μL of 0.1 M EDTA in water at pH 8.0 were added to each well to quench all enzymatic activity. Then, each sample was mixed in a 1 : 1 volume ratio with a 1 mM solution of fluorescamine19 in methanol. […] After this time, fluorescence was measured exciting at 355 nm and reading the emission at 460±10 nm. […]
fluorescence is related to the elastase-mediated hydrolysis of the peptides. […]
of the elastases and the fluorescence observed is represented by black bars . […]
peptides,[4] was incubated in the absence of elastase and the fluorescence obtained was associated

Chain of Pseudomonas aeruginosa Elastase (LasB) (P14756 198-498): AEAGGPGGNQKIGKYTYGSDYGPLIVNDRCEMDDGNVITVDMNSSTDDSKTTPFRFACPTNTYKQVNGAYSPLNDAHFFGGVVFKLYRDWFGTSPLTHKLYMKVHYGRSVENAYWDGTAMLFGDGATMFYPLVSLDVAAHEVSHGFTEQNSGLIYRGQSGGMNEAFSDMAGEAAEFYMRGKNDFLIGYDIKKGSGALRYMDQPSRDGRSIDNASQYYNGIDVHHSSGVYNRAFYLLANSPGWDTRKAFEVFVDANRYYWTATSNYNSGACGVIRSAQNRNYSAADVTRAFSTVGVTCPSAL

| SMILES | susceptibility to LasB hydrolysis (relative amine content) |
| --- | --- |
| CC(=O)N[C@@H](CS)C(=O)N[C@@H](CCC(=O)O)C(=O)N[C@@H](CCC(=O)O)C(=O)N[C@@H](CCC(=O)O)C(=O)NCC(=O)N[C@@H](CC(C)C)C(=O)N[C@@H](C)C(=O)N[C@@H](CCC(=O)O)C(=O)N[C@@H](CCC(=O)O)C(=O)N[C@@H](CCC(=O)O)C(=O)N[C@@H](CS)C(=O)O [P3SH] (Ac-CEEEGLAEEEC-OH) | highest susceptibility |
| CC(=O)N[C@@H](CS)C(=O)N[C@@H](CCC(=O)O)C(=O)N[C@@H](CCC(=O)O)C(=O)NCC(=O)N[C@@H](CC(C)C)C(=O)N[C@@H](C)C(=O)N[C@@H](CCC(=O)O)C(=O)N[C@@H](CCC(=O)O)C(=O)N[C@@H](CS)C(=O)O [P2SH] (Ac-CEEGLAEEC-OH) | least active |
